The text below walks through data of article PMC12647017, “Discovery and optimization of a synthetic small protein domain targeting antibodies” (Frontiers in Bioengineering and Biotechnology, 2025).

One experiment relates to human polyclonal IgG. In words: Screening ELISA of phage display clones (crude extracts) against human polyclonal IgG. The format is binding. As to conditions: crude extract of clones from 6th panning round, 1 µg/well human polyclonal IgG, blocked 3% (w/v) BSA in TBS, 50 µL extract 1 h at 37 °C, Anti-HA tag-HRP, ABTS, Abs405nm. The protocol: The biopanning of the previously developed WWp5_4 library ([Dias et al., 2025]) (Figures 1A,B) against human polyclonal IgG was performed for six rounds, after which an enrichment of ligands was observed (Supplementary Table S3). To assess the binding of each clone to the target, 192 clones were selected and expressed at small scale in 96-deep well blocks, following conditions previously optimised. After cell lysis, the supernatant containing the soluble fraction was used for ELISA assays. The results in Figure 1C illustrate the difference in the absorbance profile of the screened ligands. […] From these 26, only 21 presented high quality for reliable sequencing results. The sequence alignment and diversity of the different binders is represented in Table 1 and Figure 2A.
Small Scale Protein Expression and screening ELISA: From the output of the 6th round of panning, 94 isolated colonies were peaked into two sterile 96-well deep well 2mL round-bottom plates and grown with 200 µL of LB with ampicillin, 125 rpm, 37 °C, overnight (master plates). The following day, to one of the master plates was added glycerol to achieve a final concentration of 15% and was stored at -80 °C. Regarding the other master plate, 12 µL of this culture was added to another sterile 96-well deep well 2 mL round-bottom plate with 1.2 mL of LB with ampicillin and was grown at 37 °C, 125 rpm until OD600nm achieved 0.5-0.6. After this, protein expression was induced with 1 mM IPTG and continued incubation with the previous conditions. The following day, the cultures were sonicated for 30 minutes in ice-water bath and centrifuged for 10 minutes at 2500 x g. The supernatant was collected and transferred to a new microplate to be used in the screening for the ELISA (crude extract). For the ELISA, three microplates were tested: A) Sample binding plate; B) Negative control plate; C) Expression plate. On the sample binding plate, 1 µg/well of human polyclonal IgG was immobilized on the plate at 4 °C, overnight. On the following day, the target was removed, and the wells were washed once with TBS, then the plate was blocked with 300 µL 3% (w/v) BSA in TBS for 1 hour at 37 °C. After this, the wells were washed once with TBS, and were then incubated with 50 µL of crude extract (containing WW domain) for 1 hour at 37 °C. The plate was then washed 5 times with TBS-T, and then incubated with 100 µL of the Anti-HA tag-HRP conjugated antibody (diluted 1:1000) for 1 hour at 37 °C. The plate was then washed once with TBS-T and 4 times with TBS, and then incubated with the substrate ABTS for 1 hour at the dark at 37 °C. The results were then analysed in a microplate reader (TECAN) and the Abs405nm was then measured.
For the Negative control plate the protocol was the same as for the Binding microplate, except for the target immobilization. Instead of having IgG, only coating buffer was added. This plate allows to detect clones that unspecific bind to BSA present in the Blocking Buffer. For the Expression plate the protocol started at the step of incubation with the crude extract, and from there the steps were the same as the Binding microplate. This plate allows to detect clone’s basal expression level.
A general note: ELISA stands for enzyme-linked immunosorbent assay.

Another experiment concerns hIgG. In words: ELISA of soluble fractions of native and mutated WW domains against hIgG. The experiment is classed as binding. As to conditions: human IgG, soluble fraction, E6 detected with anti-HA-HRP, E6_M2 and Rosetta extract with anti-His-HRP, ABTS. As to the method:
The soluble fraction of 100 mL cultures (100 μL) was used for ELISA against hIgG, as described in ([Dias et al., 2025]). Briefly, the target hIgG was immobilized (1 μg/well) in 0.1 M Sodium Bicarbonate pH 8.6 in Immuno Maxisorp ELISA plates (Thermo Fisher), overnight at 4 °C. In the next day, the unbound hIgG was removed, and the wells washed with PBS1x. To the wells was added the blocking solution – 5% (v/v) Soya Milk in PBS 1x and incubated for 1 h at room temperature. The wells were washed and incubated with 100 µL of soluble fraction (∼0.065 mg/mL total protein) at room temperature for 2 h.
The unbound WW domains were removed, and the wells were washed using 4 times PBS1x-0.05% Tween 20 and 1 time with PBS1x. For detection was used 1:1,000 anti-His-HRP conjugated antibody (MA1-21315-HRP, Invitrogen) in 1% (v/v) Soya Milk in PBS1x and incubated for 1 h at RT, after that the wells were washed with 5x PBS1x. The detection occurred with ABTS (2,2′-azino-bis(3-ethylbenzothiazoline-6-sulfonic acid) ready solution (11684302001, Roche), which was incubated in the dark for 1 h at 37 °C. Finally, the results were analysed in a microplate reader (Tecan) with appropriate filter at Abs405nm.
Figure S6 – Production and signal characterization of mutated versions. A – Tris-Tricine gels after cell lysis of the WW prototype sequence (WWp, band at ~8KDa), mutated WWp5_4 scaffold (WWp5_4_M2, band at ~8 kDa) and mutated E6 (E6_M2, band at ~ 12kDa). Samples were normalized 90µg total protein/lane. M - Precision Plus Protein™ Dual Xtra Prestained, Biorad; SF – soluble fraction; ISF – insoluble fraction. B1, B2, and B3 indicate production batchs in 1L culture, except for WWp B1 – 100 mL, WWp_5_4 B2 – 900 mL. Stained with Simplyblue. […] The detection of the clones was made with anti-His conjugated antibody with HRP and detected with ABTS as substrate.
Figure S7 – Comparison between ELISA signal of E6 versus E6_M2. […] The expression levels were detected by direct coating of the microplate well with the soluble fraction of the extract. […] All were detected with ABTS as substrate.

Turning to “SMGLPPGWDEYKT RRFKL GKTYYYNH HILS KTSTWTDPRMSS [Clone E6]”, the ELISA signal entry with human polyclonal IgG is recorded as “High (high binders (Abs>0.4))”. The “binding signal relative to negative control (E. coli Rosetta extract)” value in the experiment on hIgG came out at 1.5 times.
